Data taken from US12396948B2, “Pharmaceutical compositions for the treatment of ophthalmic conditions” (Rhodes Technologies, priority 2017, dated 2025).
Where a name gives a salt, the structure may show the parent alone.

How the values were obtained:
[1] = cited from earlier work
Female C57BL/6J mice [2] = assay: Conscious mouse IOP after single topical drop (Example 57); assay type: in vivo; settings: for maximal IOP effect: conscious mice
Procedure: Female C57BL/6J mice (Jackson Laboratories, Bar Harbor, ME; age 2-3 months) were kept in 12 h light/12 h dark conditions (lights on 0600 h) and fed with standard chow. All experimental procedures were conducted in accordance with the ARVO Statement for the Use of Animals in Ophthalmic and Vision Research, and the University of North Texas Health Science Center Institutional Animal Care and Use Committee Regulations and Guidelines.
Dronabinol ophthalmic solutions (0.05% and 0.5%) and the corresponding vehicle were provided by Rhodes Technologies. Timolol maleate 0.5% (Hi. Tech Pharmacal) was purchased. Formulation AE10C-B was prepared as described above (Table 44).
The 2-tailed unpaired Student's t-test was used for comparison of results at the same time point between two study groups. P values of less than 0.05 were considered significant. All data are presented as mean±SEM.

mouse = assay: Repeated dosing study on IOP lowering effects (Example 58); assay type: in vivo; settings: for maximum IOP reduction: twice daily 7 days, vs contralateral untreated eye
Procedure: Study protocol is similar to Dose-Response Relationship Study described above, except that the animals are divided into three groups (as specified below). A single 5 μL drop was instilled topically onto one eye of each mouse twice daily starting at time 0 of Day 1.
The contralateral eye was untreated. IOP of both eyes was measured at −1 h (baseline), 2 h, 4 h, 6 h, 8 h, 12 h. […] In addition to IOP measurement, animals were evaluated for possible ocular and gross systemic adverse effects. • Group 1: Vehicle • Group 2: Dronabinol (optimal concentration determined in studies above) • Group 3: Timolol (0.5%) Results: The results are presented in FIGS. 28 and 29, which illustrate comparison of IOP effects of the Dronabinol formulations, vehicle, and Timolol. The formulations were administered twice daily at 8-9 AM (Time 0) and 4-5 PM starting Day 1 till Day 7. The upper panel reports IOP values at the indicated time points after dosing (IOP at Time 0 was obtained immediately prior to the morning dosing) of Days 1, 4, and 7. The bottom panel represents % IOP change compared to the contralateral untreated eye, whose IOP defines 100%. Data are shown as mean±SEM.

[3] = Impurity profile of antioxidant excipient solutions (Example 42); assay type: physicochemical; settings: for Impurity (% Area) Total / Impurity (% w/w) Total: excipient solution; for Impurity (% w/w) Total: converted to levels corresponding to antioxidant concentrations in the dronabinol formulations
Female C57BL/6J mice [4] = assay: Mouse aqueous humor dynamics by constant flow infusion (Example 57); settings: 0.5% emulsion
From the text: Briefly, immediately following bilateral tonometry in anesthetized animals, both eyes received a drop of proparacaine HCl (0.5%) for topical anesthesia, and both anterior chambers were cannulated with a 30G needle (one per eye) connected to previously calibrated BLPR-2 flow-through pressure transducers (World Precision Instruments (WPI), Sarasota, FL) for the continuous determination of pressure. A drop of PBS was also given to each eye topical ocular to prevent corneal drying. The opposing end of each transducer was connected to a 3-way valve, which in turn was connected to: (a) a 50 FAL glass microsyringe (Hamilton Company, Reno, NV) filled with sterile PBS loaded into an SP101i microdialysis infusion pump (WPI), and (b), an open ended, variable height manometer. Signals from the pressure transducers were passed via a TBM4M Bridge Amplifier (WPI) and a Lab-Trax analog-to-digital converter (WPI) to a computer. Data were recorded using LabScribe2 software (WPI).
The manometer was closed to the circuit and eyes were infused at a flow rate of 0.1 μL/min. When pressure had stabilized, pressure measurements were recorded, and flow rate was increased sequentially to 0.2, 0.3, 0.4, and 0.5 μL/min. Three stabilized pressures (spaced 5 min apart) at each flow rate were recorded. Aqueous outflow facility (C) in each eye of each animal was calculated as the reciprocal of the slope of a plot of Mean Stabilized Pressure as ordinate against Flow Rate as abscissa.
Episcleral venous pressure (Pe) was estimated using the blood reflux method. Briefly, following anterior chamber cannulation, the manometer was opened to the circuit, manometric pressure was set to equal pre-cannulation (anesthetized) TOP, and then manometric pressure was lowered incrementally (at the rate of 1 mmHg/min) until the point at which blood was seen (using a dissection microscope under 30× magnification) to reflux into the scleral collector channels and then Schlemm's canal. The manometric pressure at which Schlemm's canal was seen to fill with refluxed blood was regarded as Pe.
After completion of the above measurements, animals were euthanized by anesthetic overdose and, 20 min following euthanasia, C was measured again. Thus values for Clive and C dead were obtained. Following euthanasia, both aqueous humor formation rate (Fin) and Pe are equal to zero, and via algebraic rearrangement of the modified Goldmann equation {IOP=[(Fin−Fu)/C]+Pe}, values for Fu were thus calculated for each individual perfusion rate and corresponding TOP. The mean of those resultant 5 values was reported as Fu.
Aqueous Humor Formation Rate (Fin) was calculated for each eye by further algebraic rearrangement of the modified Goldmann equation: Fin=[C×(IOP−Pe)]+Fu.

Molecule: O=C(O)/C=C/C(=O)O [Fumaric Acid]
- Solub. in Water [1]: 0.007 mg/L

Molecule: CC(C)(C)NC[C@H](O)COc1nsnc1N1CCOCC1 [Timolol, Timolol maleate]
- effect on mouse IOP (Female C57BL/6J mice [2]; 0.5%, positive control): lowered mouse TOP as expected
- prolonged IOP reduction (baseline IOP at Days 4 & 7) (mouse; 0.5%, twice daily): did not produce this prolonged IOP reduction
- maximum IOP reduction (mouse; 0.5%): 35.1%

Molecule: COc1ccc(O)c(C(C)(C)C)c1 [Butylated Hydroxyanisole (BHA)]
- Solub. in Water (in words) [1]: Insoluble

Molecule: O=S([O-])S(=O)(=O)[O-].[K+].[K+] [Potassium Metabisulfite]
- Solub. in Water [1]: 49.5 g/100 mL water

Molecule: CC(=O)OC/C=C(C)/C=C/C=C(C)/C=C/C1=C(C)CCCC1(C)C [Vitamin A]
- RRT 0.83 in testing of excipients ([3]; 0.5% Vitamin A): ~0.5 % w/w

Molecule: O=C(O)CC(O)C(=O)O (centres unmarked) [Malic Acid]
- Solub. in Water [1]: 59.2 g/100 mL water

Molecule: OCC(O)CS (centres unmarked) [Monothioglycerol]
- Solub. in Water (in words) [1]: Slightly

Molecule: CCCCCCCCCCCCCCCC(=O)OC[C@H](O)[C@H]1OC(=O)C(O)=C1O [Ascorbyl Palmitate]
- Solub. in Water [1]: 0.07 mg/L

Molecule: O=S([O-])[O-].[Na+].[Na+] [Sodium Sulfite]
- Impurity (% Area) Total [3]: 0.0 % Area
- Impurity (% w/w) Total [3]: 0.0 % w/w

Molecule: O=S([O-])S(=O)(=O)[O-].[Na+].[Na+] [Sodium Metabisulfite]
- Solub. in Water (in words) [1]: Freely

Molecule: CCCOC(=O)c1cc(O)c(O)c(O)c1 [Propyl Gallate]
- Solub. in Water [1]: 0.35 g/100 mL water

Molecule: O=S([O-])([O-])=S.[Na+].[Na+] [Sodium Thiosulfate]
- Impurity (% Area) Total [3]: 0.0 % Area
- Impurity (% w/w) Total [3]: 0.0 % w/w

Molecule: Vitamin E
- Solub. in Water (in words) [1]: Insoluble

Molecule: O=S=O [Sulfur Dioxide]
- Solub. in Water [1]: 8.5 g/100 mL water

Molecule: CCCCCc1cc(O)c2c(c1)OC(C)(C)[C@@H]1CCC(C)=C[C@@H]21 [Dronabinol, (−)-trans-Δ^9-tetrahydrocannabinol]
- IOP reduction at 24 h after treatment (Female C57BL/6J mice [2]; 0.05% and 0.5%, single 5 μL drop): still significant
- ocular, systemic, or behavioral adverse effects (Female C57BL/6J mice [2]; 0.05% and 0.5%, single topical drop): No ocular, systemic, or behavioral adverse effects were observed
- maximal IOP effect (Female C57BL/6J mice [2]; 0.05% ophthalmic solution, single 5 μL drop, @ 6 h): −22.3%
- maximal IOP effect (Female C57BL/6J mice [2]; 0.5% ophthalmic solution, single 5 μL drop, @ 2 h): −25.8%
- maximum IOP reduction (mouse; 0.005% formulation): 19.8%
- maximum IOP reduction (mouse; 0.015% formulation): 25.7%
- maximum IOP reduction (mouse; 0.05% formulation): 33.2%
- duration of action (mouse; 0.05%, lowered baseline IOP at Days 4 & 7): > 16 h
- tachyphylaxis or adverse effect (mouse; 7-day twice daily dosing, 0.005%, 0.015%, 0.05%): No tachyphylaxis or adverse effect was observed
- ocular adverse effect (Female C57BL/6J mice [4]): No ocular adverse effect was observed
- IOP lowering in anesthetized animals (Female C57BL/6J mice [4]; 2 h after treatment): 29.9%
- aqueous humor formulation rate, change (Female C57BL/6J mice [4]; 2 h after treatment): −21.6%
- aqueous outflow facility, increase (Female C57BL/6J mice [4]; 2 h after treatment): 54.5%
- episcleral venous pressure, change (Female C57BL/6J mice [4]; 2 h after treatment): −26.8%
